From PMC5770468, “Cardiac glycoside/aglycones inhibit HIV-1 gene expression by a mechanism requiring MEK1/2-ERK1/2 signaling” (Scientific Reports, 2018)

Key:
[1] = test system: HIV-1 Gag-GFP expression; test: Recovery of HIV-1 Gag-GFP expression by pathway inhibitors in the presence of CSs, HeLa rtTA-HIV(Gag-GFP) cells; format: cell-based; settings: 12 μM U0126; 5.5 μM Selumetinib; 10 μM LY294002; 5 µM KB-R7943; CSs at ~IC80
Description: (§1) Figure 5 Effect of modulating NKA expression, [Ca^2+]i, and PI3K-AKT on HIV-1 gene expression. Depletion of the NKA perturbs HIV-1 RNA processing (n ≥ 3, mean, s.e.m.). HeLa rtTA-HIV(Gag-GFP) cells were transduced with two shRNAs (E6/E10) to knockdown expression of the NKA α1 subunit and their effect on HIV-1 gene expression analyzed. After positive selection of cells with puromycin for 24–48 h, HIV-1 expression was Dox induced for 20 h, and cells harvested for analyses. Total mRNA (and protein) was isolated from cells, reverse transcribed, and analyzed by qRT-PCR and data normalized to β-actin (a,c). Results are shown relative to Stuffer (+). (a) Expression levels of NKA α1 mRNAs assayed by qRT-PCR. (b) HIV-1 Gag expression assayed by p24^CA ELISA of cell lysates (40 μg). (c) Accumulation of HIV-1 US (black), SS (white), and MS (gray) mRNAs quantified by qRT-PCR. (d–g) CSs suppress HIV-1 gene expression independent of intracellular Ca^2+ flux/signaling and PI3K-AKT activation. HeLa rtTA-HIV(Gag-GFP) cells were pre-treated with either a chelator of [Ca^2+]i (5 µM BAPTA-AM, [Ca2+]ii), inhibitors of NCX Ca^2+-entry (5 µM KB-R7943, NCXi) or PI3K (10 μM LY294002, PI3Ki), or untreated (DMSO, no pathway inhibitor) for ~2 h prior to treatment with ~IC80s of CSs or DMSO for 4 h, and Dox induced for ~20 h. The pathway used by a CS to inhibit HIV-1 expression was determined by monitoring for recovery of Gag-GFP expression by measuring GFP fluorescence in cell lysates (and initially by plate scans of live/fixed cells, Supplementary Fig. S7a and S8c). (d) Levels of [Ca^2+]i measured by Fura Red AM™ (n ≥ 4, mean, s.e.m.). (e–f) Quantification of Gag-GFP expression by reducing SDS-PAGE in lysates (35 μg) of cells which were pre-treated with/without KB-R7943 (n ≥ 3–4 mean, s.e.m.). […] (g) Graph quantitating Gag expression by p24^CA ELISA in lysates of cells (35 μg) that were pre-treated with/without LY294002 (n ≥ 3, mean, s.e.m.). Statistical comparisons in (a–g) were performed as illustrated (black/gray dashed lines) or described in Methods.
Figure 6 CSs control HIV-1 gene expression through intracellular signaling. HeLa rtTA-HIV(Gag-GFP) cells were pre-treated with/without pathway inhibitor overnight (~15 h) and treated with ~IC80s of CSs. […] Graphs quantifying the activation level (phospho/total protein) of each MAP/MAPK by western blot. […] The signaling pathway(s) used by a CS to inhibit HIV-1 expression was determined by detecting Gag-GFP fluorescence in cell lysates (~35 μg) by reducing SDS-PAGE after pre-treatment of cells with a MEK1/2 (12 μM U0126, white), p38α/β/β2 (15 μM SB203580/p38i, gray), or JNK1/2/3 (1.25 μM SP600125/JNKi, hatched) inhibitor (n ≥ 5–7, 4–8, and 3–7, resp., mean, s.e.m.). […]

[2] = test system: [Ca^2+]i; test: Intracellular Ca2+ by Fura Red AM in HeLa rtTA-HIV(Gag-GFP) cells; format: cell-based, human; settings: 5 µM pre-treatment ~2 h
Description: as §1, with “(a) Expression levels of NKA α1 mRNAs assayed by qRT-PCR. (b) HIV-1 Gag expression assayed by p24^CA ELISA of cell lysates (40 μg).” left out, “(d–g) CSs suppress HIV-1 gene expression independent of intracellular Ca^2+ flux/signaling and PI3K-AKT activation. HeLa rtTA-HIV(Gag-GFP) cells were pre-treated with either a chelator of [Ca^2+]i (5 µM BAPTA-AM, [Ca2+]ii), inhibitors of NCX Ca^2+-entry (5 µM KB-R7943, NCXi) or PI3K (10 μM LY294002, PI3Ki), or untreated (DMSO, no pathway inhibitor) for ~2 h prior to treatment with ~IC80s of CSs or DMSO for 4 h, and Dox induced for ~20 h.” left out, “Statistical comparisons in (a–g) were performed as illustrated (black/gray dashed lines) or described in Methods.” left out

## N=C(N)SCCc1ccc(OCc2ccc([N+](=O)[O-])cc2)cc1 [KB-R7943]
[1]
  reversal of CS inhibition of HIV-1 Gag-GFP expression by pathway inhibitor pre-treatment: did not reverse
[2]
  effect on CS-triggered rise in [Ca^2+]i: blocked
